Patent US20210309657A1, “TRICYCLIC COMPOUNDS FOR THE TREATMENT AND PROPHYLAXIS OF BACTERIAL INFECTION” (Hoffmann-La Roche Inc., priority 2018, published 2021)
Converted amounts (≈) assume the structure as drawn. Like-named read-outs stand apart in the source and are kept apart here.

Experiments:
[1] = Lyophilisation solubility assay (LYSA); format: physicochemical; conditions: thermodynamic from solid
Experimental: The solubility of compounds of present invention was assessed by LYSA assay. Samples were prepared in duplicate from 10 mM DMSO stock solutions ([…]) diluted in 30 μL pure DMSO. After evaporation of DMSO with a centrifugal vacuum evaporator, the residue was dissolved in 0.05 M phosphate buffer (150 μL, pH 6.5), which was stirred for one hour and shook for two hours. After one night, the solution was filtered using a microtiter filter plate. Then the filtrate and its 1/10 dilution were analyzed by HPLC-UV. In addition, a four-point calibration curve was prepared from the 10 mM stock solutions and used for the solubility determination of the compounds.

S. aureus (ATCC29213) = test: 50% growth inhibitory concentration (IC50) determination assay, S. aureus; format: cell-based; conditions: Staphylococcus aureus, growth inhibition, Iso-Sensitest broth, OD 600 nm over 16h, <0.098 = the detection limit
Experimental: (§1) The in vitro antimicrobial activity of the compounds against S. aureus (ATCC29213), K. pneumoniae (ATCC10031), and A. baumannii (ATCC17978), was determined according to the following procedure: The assay used a 10-points Iso-Sensitest broth medium to measure quantitatively the in vitro activity of the compounds against S. aureus ATCC29213, K. pneumoniae ATCC 10031, and A. baumannii ATCC17978. Stock compounds in DMSO were serially two-fold diluted (range from 50 to 0.097 μM final concentration) in 384 wells microtiter plates and inoculated with 49 μL the bacterial suspension in Iso-Sensitest broth medium to have a final cell concentration of ˜5×10^5 CFU/mL in a final volume/well of 50 μL/well. Microtiter plates were incubated at 35±2° C. Bacterial cell growth was determined with the measurement of optical density at λ=600 nm each 20 minutes over a time course of 16h. Growth inhibition was calculated during the logarithmic growth of the bacterial cells with determination of the concentration inhibiting 50% (IC50) of the growth. Compounds of the present invention were tested for their concentration inhibiting 50% (IC50). The data of IC50 over S. aureus (ATCC29213), K. pneumoniae (ATCC10031), and A. baumannii (ATCC17978) are illustrated in Table 4.

[2] = tested on: K. pneumoniae (ATCC10031); test: 50% growth inhibitory concentration (IC50) determination assay, K. pneumoniae; format: cell-based; conditions: Klebsiella pneumoniae, growth inhibition, Iso-Sensitest broth, OD 600 nm over 16h, <0.098 = the detection limit
Experimental: as §1

A. baumannii (ATCC17978) = test: 50% growth inhibitory concentration (IC50) determination assay, A. baumannii; format: cell-based; conditions: Acinetobacter baumannii, growth inhibition, Iso-Sensitest broth, OD 600 nm over 16h, <0.098 = the detection limit
Experimental: as §1

[3] = aqueous buffer, 0.05 M phosphate buffer, pH 6.5, HPLC-UV, <1.0 = the detection limit, read-out: Lysa

| solubility thermodynamic [1, 3] [µg/mL] | IC50 (S. aureus (ATCC29213)) [nM] | IC50 [2] [nM] | IC50 (A. baumannii (ATCC17978)) [nM] | Structure (SMILES) | solubility thermodynamic ([1]; pH 6.5, aqueous buffer) [µg/mL] |
| --- | --- | --- | --- | --- | --- |
| 195 (≈ 444 µM) | 567 | < 98 | 249 | CCNc1cc(F)c(F)c2c1[nH]c1ncc(-c3cnc(OC)nc3)c(N3CC[C@@H](N)C3)c12 [Example 1.18, 4-[(3R)-3-Aminopyrrolidin-1-yl]-N-ethyl-5,6-difluoro-3-(2-methoxypyrimidin-5-yl)-9H-pyrido[2,3-b]indol-8-amine] |  |
| 160 (≈ 365 µM) | 474 | 391 | < 98 | CNc1cc(F)c(F)c2c1[nH]c1ncc(-c3cnc(C4(C(=O)O)CC4)nc3)c(N(C)C)c12 [Example 2.02, 1-[5-[4-(dimethylamino)-5,6-difluoro-8-(methylamino)-9H-pyrido[2,3-b]indol-3-yl]pyrimidin-2-yl]cyclopropanecarboxylic acid] |  |
| 169 (≈ 403 µM) | 526 | < 98 | 672 | CNc1cc(F)c(F)c2c1[nH]c1ncc(-c3cncc(C#N)c3)c(N3CC[C@@H](N)C3)c12 [Example 1.15, 5-[4-[(3R)-3-Aminopyrrolidin-1-yl]-5,6-difluoro-8-(methylamino)-9H-pyrido[2,3-b]indol-3-yl]pyridine-3-carbonitrile] |  |
| > 575 | 631 | < 98 | 847 | CNc1cc(F)cc2c1[nH]c1ncc(-c3cnc(OC)nc3)c(C3(CN)CC3)c12 [Example 4.01, 4-(1-(Aminomethyl)cyclopropyl)-6-fluoro-3-(2-methoxypyrimidin-5-yl)-N-methyl-9H-pyrido[2,3-b]indol-8-amine] |  |
| 90 (≈ 199 µM) | 184 | < 98 | < 98 | CNc1cc(F)c(F)c2c1[nH]c1ncc(-c3cnc(OC)nc3)c(N3CCC4(C[C@@H]4N)C3)c12 (stereo in doubt) [Example 1.35, 4-[Trans-2-amino-5-azaspiro[2.4]heptan-5-yl]-5,6-difluoro-3-(2-methoxypyrimidin-5-yl)-N-methyl-9H-pyrido[2,3-b]indol-8-amine] |  |
| 19 (≈ 43.2 µM) | 275 | < 98 | 443 | CNc1cc(F)c(F)c2c1[nH]c1ncc(-c3cnc(OC)nc3)c(N3CCCC(N)C3)c12 (centres unmarked) [Example 1.47, 4-(3-Aminopiperidin-1-yl)-5,6-difluoro-3-(2-methoxypyrimidin-5-yl)-N-methyl-9H-pyrido[2,3-b]indol-8-amine] |  |
| 74 (≈ 164 µM) | 522 | < 98 | 340 | CNc1cc(F)c(F)c2c1[nH]c1ncc(-c3cnc(OC)nc3)c(N3CC4CC4(CN)C3)c12 (centres unmarked) [Example 1.27, 4-[1-(Aminomethyl)-3-azabicyclo[3.1.0]hexan-3-yl]-5,6-difluoro-3-(2-methoxypyrimidin-5-yl)-N-methyl-9H-pyrido[2,3-b]indol-8-amine] |  |
| 11 (≈ 24.4 µM) | 224 | < 98 | 112 | CNc1cc(F)c(F)c2c1[nH]c1ncc(-c3cncc(C#N)c3)c(N3CCC(F)(CN)C3)c12 (centres unmarked) [Example 1.22, 5-[4-[3-(Aminomethyl)-3-fluoro-pyrrolidin-1-yl]-5,6-difluoro-8-(methylamino)-9H-pyrido[2,3-b]indol-3-yl]pyridine-3-carbonitrile] |  |
| 125 (≈ 263 µM) | 559 | < 98 | 411 | CNc1cc(F)c(F)c2c1[nH]c1ncc(-c3cnc(OC)nc3)c(N3CC(CN)C(F)(F)C3)c12 (centres unmarked) [Example 3.03, 4-[4-(aminomethyl)-3,3-difluoro-pyrrolidin-1-yl]-5,6-difluoro-3-(2-methoxypyrimidin-5-yl)-N-methyl-9H-pyrido[2,3-b]indol-8-amine] |  |
| 93 (≈ 206 µM) | 603 | < 98 | 157 | CNc1cc(F)c(F)c2c1[nH]c1ncc(-c3cnc(OC)nc3)c(N3CCC4(C[C@H]4N)C3)c12 (stereo in doubt) [Example 1.34, 4-[Cis-2-amino-5-azaspiro[2.4]heptan-5-yl]-5,6-difluoro-3-(2-methoxypyrimidin-5-yl)-N-methyl-9H-pyrido[2,3-b]indol-8-amine] |  |
| 32 (≈ 74.9 µM) | 867 | < 98 | 104 | CNc1cc(F)cc2c1[nH]c1ncc(-c3cncc(C#N)c3)c(N3CCC4(C[C@H]4N)C3)c12 (stereo in doubt) [Example 1.16, 5-[6-Fluoro-8-(methylamino)-4-[cis-2-amino-5-azaspiro[2.4]heptan-5-yl]-9H-pyrido[2,3-b]indol-3-yl]pyridine-3-carbonitrile] |  |
| 16 (≈ 34.1 µM) | 649 | < 98 | 485 | CNc1cc(F)c(F)c2c1[nH]c1ncc(-c3cncc(C#N)c3)c(N3CC(CN)C(F)(F)C3)c12 (centres unmarked) [Example 3.04, 5-[4-[4-(aminomethyl)-3,3-difluoro-pyrrolidin-1-yl]-5,6-difluoro-8-(methylamino)-9H-pyrido[2,3-b]indol-3-yl]pyridine-3-carbonitrile] |  |
| 145 (≈ 335 µM) | 380 | < 98 | 212 | CCNc1cc(F)c(F)c2c1[nH]c1ncc(-c3cncc(C#N)c3)c(N3CC[C@@H](N)C3)c12 [Example 1.04, 5-[4-[(3R)-3-Aminopyrrolidin-1-yl]-8-(ethylamino)-5,6-difluoro-9H-pyrido[2,3-b]indol-3-yl]pyridine-3-carbonitrile] |  |

| Structure (SMILES) | solubility thermodynamic [1, 3] [µg/mL] | IC50 (S. aureus (ATCC29213)) [nM] | IC50 [2] [nM] | IC50 (A. baumannii (ATCC17978)) [nM] | solubility thermodynamic ([1]; pH 6.5, aqueous buffer) [µg/mL] |
| --- | --- | --- | --- | --- | --- |
| CNc1cc(F)c(F)c2c1[nH]c1ncc(-c3cnc(OC)nc3)c(N3C4CNCC3C4)c12 [Example 1.57, 4-(3,6-Diazabicyclo[3.1.1]heptan-6-yl)-5,6-difluoro-3-(2-methoxypyrimidin-5-yl)-N-methyl-9H-pyrido[2,3-b]indol-8-amine] |  | 286 | < 98 | 314 | 91 (≈ 208 µM) |
